{"source": "patent US20060134056A1", "about": "“Use of alkylguanidines as cationic emulsifiers” (G[…], priority 2004, published 2006)", "test": "storage stability of O/W emulsions", "format": "physicochemical", "settings": "O/W emulsion with 0.5% emulsifier; room temperature, 45° C. and freeze-thaw cycles (3×−15° C.)", "protocol": "Here, it was paaticulaily surprising that stable emulsions were obtainale even at emulsifier concentrations of 0.5% stearylguanidinium acetate (6 months stability at room temperature, 45° C. and freeze-thaw cycles (3×−15° C.)).\nIn addition, emulsions 7 to 8 also illustrate the excellent emulsifying properties of other alkylguanidinium salts."}
{"smiles": "CC(=O)O.CCCCCCCCCCCCCCCCCCNC(=N)N", "note": "[stearylguanidinium acetate]", "values": [{"measurement": "stability of emulsion", "value": 6, "unit": "months"}]}
